From publication PMC5100701 (Bioconjugate chemistry, 2016)
Like-named read-outs stand apart in the source and are kept apart here.

Assays:
human MMP-12 [1] = biological target: T1, human MMP-12 (Homo sapiens, UniProt P39900); assay: ability to block MMP-12 activity in presence of human serum albumin; format: biochemical; conditions: hSA 5 μM
[2] = blood clearance after intravenous injection in mice; format: in vivo; conditions: C57BL/6 mice, 1 nmol injected, n=3, 4h post-injection
[3] = biodistribution: tissue fluorescence in harvested organs; format: in vivo, C57BL/6 mice; conditions: organs harvested 4h post-injection, 1 nmol injected
[4] = LC/MS analysis of mouse urine; format: in vivo, C57BL/6 mice; conditions: mouse urine 4h after injection
human MMP-12 [5] = biological target: T1, human MMP-12; assay: in vitro binding; format: biochemical; conditions: read-out: Ki (nM)/hMMP12; 50 mM Tris/HCl buffer, pH 6.8, 10 mM CaCl2, 25 °C; mean ± SD of three experiments
human MMP-12 [6] = biological target: T1, human MMP-12; conditions: read-out: Ki toward human MMP-12; cited from earlier work
atherosclerotic plaque = conditions: mouse model of atherosclerosis; cited from earlier work

T1 sequence (P39900 106-470): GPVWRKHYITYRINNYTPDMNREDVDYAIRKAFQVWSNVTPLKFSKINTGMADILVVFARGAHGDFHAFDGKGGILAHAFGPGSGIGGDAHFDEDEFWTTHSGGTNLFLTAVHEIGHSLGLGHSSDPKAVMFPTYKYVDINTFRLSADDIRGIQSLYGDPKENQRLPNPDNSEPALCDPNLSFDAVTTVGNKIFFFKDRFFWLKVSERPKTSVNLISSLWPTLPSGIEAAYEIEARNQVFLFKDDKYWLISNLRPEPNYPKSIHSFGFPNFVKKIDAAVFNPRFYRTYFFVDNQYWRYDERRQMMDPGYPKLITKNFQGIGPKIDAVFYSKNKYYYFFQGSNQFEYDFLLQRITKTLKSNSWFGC

Compound | shift of Ki in presence of human serum albumin (human MMP-12 [1]) | percentage of injected dose remaining in the bloodstream 4h post-injection [2] | tissue fluorescence in liver, spleen, kidneys and lungs [3] | conversion into a second metabolite in urine [4] | Ki (human MMP-12 [5]) | Ki (human MMP-12 [6]) | effect on atherosclerotic plaque (atherosclerotic plaque)
CC[N+]1=C(C=CC=CC=C2N(CCCCCC(=O)NCCOCCOCCNC(=O)[C@H](CCC(=O)O)NC(=O)[C@H](CCC(=O)O)NC(=O)[C@H](Cc3cc(-c4ccc(-c5cccc(Cl)c5)cc4)no3)CP(=O)(O)c3ccc(Br)cc3)c3ccc4c(S(=O)(=O)O)cc(S(=O)(=O)[O-])cc4c3C2(C)C)C(C)(C)c2c1ccc1c(S(=O)(=O)O)cc(S(=O)(=O)O)cc21 [probe 1] | 88 fold | 25.1±2.9 %ID | higher fluorescence signals in the kidneys relative to the liver |  |  |  | 
CC1(C)C(=CC=C2CCCC(C=CC3=[N+](CCCCCC(=O)NCCOCCOCCNC(=O)[C@H](CCC(=O)O)NC(=O)[C@H](CCC(=O)O)NC(=O)[C@H](Cc4cc(-c5ccc(-c6cccc(Cl)c6)cc5)no4)CP(=O)(O)c4ccc(Br)cc4)c4ccc(S(=O)(=O)O)cc4C3(C)C)=C2Oc2ccc(S(=O)(=O)O)cc2)N(CCCCS(=O)(=O)O)c2ccc(S(=O)(=O)[O-])cc21 [probe 4] |  |  | cleared by the kidneys, but its uptake by the liver is not negligible | about 50% |  |  | 
NC(=O)[C@H](CCC(=O)O)NC(=O)[C@H](CCC(=O)O)NC(=O)[C@H](Cc1cc(-c2ccc(-c3cccc(Cl)c3)cc2)no1)CP(=O)(O)c1ccc(Br)cc1 [RXP470.1, reference compound] | 8.5 fold |  |  |  | 0.26 ± 0.05 nM | 260 pM | inhibit atherosclerotic plaque growth
